Source: patent US6900187B2, “TRPM-2 antisense therapy using an oligonucleotide having 2′-O-(2-methoxy)ethyl modifications” (The University of British Columbia, priority 1999, dated 2005)
pIC50: −log10 of the molar value. Like-named read-outs stand apart in the source and are kept apart here.

Assays:
TRPM-2 = details: cited from earlier work
human RCC CaKi-2 cells = experiment: MTT assay of CaKi-2 cell growth, ODN plus taxol; assay type: cell-based; details: CAKI-2, CaKi-2 cells
Description: (§1) Immunohistochemical staining was used to characterize TRPM-2 expression in 17 RCC and normal kidney tissues obtained from radical nephrectomy specimens. TRPM-2 expression in human renal cancer cell lines ACHN, CaKi-1 and CaKi-2 was evaluated by Northern and Western blot analyses. Northern blot analysis was used to assess changes in TRPM-2 mRNA expression after antisense TRPM-2 ODN treatment. The effects of combined antisense TRPM-2 ODN and taxol treatment on CaKi-2 cell growth was examined using a MTT assay (Zellweger et al., Neoplasia 3: 360-367 (2001)).

Shionogi cells = experiment: Viability of Shionogi cells treated with chemotherapy agent plus ODN; assay type: cell-based, mouse; details: antisense Bcl-2 ODN added to antisense TRPM-2 ODN and taxol
Description: Shionogi cells maintained in vitro were treated with varying amounts of taxol alone or in combination with 500 nM antisense TRPM-2 ODN (Seq. ID. No. 1) or the mismatch control (Seq. ID No. 2). The cells were treated twice, as described in Example 2, and the percentage of viable cells remaining was determined. As shown, the inclusion of antisense TRPM-2 ODN shifted the dose-response curve to the left, lowering the IC50 by a factor of 5 to 10.
The experiment of Example 3 was repeated, with the addition of antisense Bcl-2 ODN (Seq. ID. No. 13) or a mismatch Bcl-2 ODN (Seq. ID. No. 14) in various combinations with antisense/mismatch TRPM-2 ODN and taxol. […] Thus, the targeting of additional anti-apoptotic agents appears to provide therapeutic benefits.

human TRPM-2 mRNA = experiment: TRPM-2 mRNA expression in PC-3 and TRPM-2 transfected LNCaP cells; assay type: cell-based
Description: The sequences of these ten ODNs are set forth in the attached Sequence Listing as Seq. ID. Nos. 3-12. The ten human antisense ODNs were evaluated using TRPM-2 transfected LNCaP cells and human prostate cancer PC-3 cells for their ability to inhibit expression of TRPM-2 mRNA. […] ID Nos. 4, 5, and 12. Sequence ID No. 5 corresponds to the sequence used by Sensibar, et al. that produced inhibition of TRPM-2 expression in LNCaP cells, and is complementary to the first 21 bases of the TRPM-2 mRNA. […] ID No. 4. Common to all of the effective sequences is an overlap with either the initiation or termination sites of the TRPM-2 mRNA. Thus, it was shown that inhibition of expression of TRPM-2 may be accomplished by the administration of antisense ODNs, particularly antisense ODNs which are complementary to a region of the TRPM-2 mRNA spanning either the translation initiation site or the termination site.
To identify appropriate antisense TRPM-2 ODN sequences for use in human therapy, antisense ODN sequences directed against 10 different sites of the human TRPM-2 gene (FIG. 2, Seq. ID Nos. 3-12) were synthesized and tested for their ability to decrease TRPM-2 gene expression in human prostate cancer PC-3 and transfected LNCaP cells that overexpress TRPM-2 using the same treatment protocol described in Example 2. As shown, sequences 4, 5 and 12 are active for reduction of TRPM-2 expression. These three sequences overlap or are immediately adjacent to the translation initiation or termination sites.

TRPM-2 mRNA [1] = experiment: Northern blot of TRPM-2 mRNA in Shionogi tumor cells in vitro; assay type: cell-based, mouse; details: varying ODN concentrations with lipofectin, treated twice over two days
Description: The sequence selectivity of the antisense TRPM-2 ODN (Seq. ID. No. 1) was confirmed by comparing expression levels of TRPM-2 mRNA in Shionogi tumor cells maintained in vitro, after treatment with the varying levels of antisense TRPM-2 ODN or a mismatch control (Seq. ID. No. 2). To facilitate uptake of the ODNs into the cells, the ODNs were formulated in a cationic lipid carrier (Lipofectin, (Life Technologies, Inc.)). Cells were treated twice over a period of two days using the following protocol. Cells were preincubated for 20 minutes with 4 μg/ml of lipofectin in serum free OPTI-MEM (Life Technologies, Inc.) and then incubated with the medium containing the selected concentration of ODN and lipofectin for four hours. The medium was then replaced with the standard culture medium.
The amount of TRPM-2 mRNA in the cells was evaluated using Northern blot analysis. […] In contrast, TRPM-2 mRNA levels were not affected by the mismatch ODN (Seq. ID. No. 2) at any of the employed concentrations. Thus, the affect of antisense TRPM-2 ODN is apparently sequence specific.

TRPM-2 mRNA [2] = experiment: Northern blot of TRPM-2 expression in CaKi-2 cells; assay type: cell-based, human
Description: as §1

[3] = Side effects in Shionogi tumor mice; assay type: in vivo, mouse; details: 12.5 mg/kg i.p. once daily for 40 days
Description: Mice were randomly selected for treatment with murine phosphorothioate antisense TRPM-2 ODN (Seq. ID No. 1) or a mismatch control (Seq. ID No. 2) which is two bases different in sequence from the antisense TRPM-2 ODN. Each experimental group consisted of 7 mice. One day after castration, 12.5 mg/kg of antisense TRPM-2 or mismatch control ODN dissolved in phosphate buffered saline were injected intraperitoneally once daily into each mouse of 40 days. Tumor volume was measured twice weekly, and calculated by the formula length×width×depth×0.5236. Gleave et al., Cancer Res. 52: 1598-1605 (1992). Data points were reported as average tumor volumes±standard deviation.

For “antisense molecule corresponding to the bases 1-21 of the TRPM-2 sequence: antisense molecule of Sensibar et al.; Seq. ID No. 5 corresponds to its sequence (antisense ATTGTCTGAGACCGTCTGGTC; listed as DNA, chemistry not given here)”, the apoptotic cell death (TRPM-2; LNCaP cells exposed to TNFα) is given as “increase in apoptotic cell death” and the “expression of TRPM-2” value (TRPM-2; transfected LNCaP cells) is given as “substantial reduction in expression of TRPM-2”.
CC(=O)O[C@H]1C(=O)[C@@]2(C)[C@H]([C@H](OC(=O)c3ccccc3)[C@]3(O)C[C@H](OC(=O)[C@H](O)[C@@H](NC(=O)c4ccccc4)c4ccccc4)C(C)=C1C3(C)C)[C@]1(OC(C)=O)CO[C@@H]1C[C@@H]2O [taxol] gave a pIC50 (human RCC CaKi-2 cells; with antisense TRPM-2 ODN) of 7.30 and a pIC50 (human RCC CaKi-2 cells; with mismatch control ODN) of 6.30.
In the case of “antisense Bcl-2 ODN: antisense Bcl-2 ODN (Seq. ID. No. 13) (antisense TCTCCCGGCTTGCGCCAT; listed as DNA, chemistry not given here)”, the “cytotoxic effects of taxol in combination with antisense TRPM-2 ODN and antisense Bcl-2 ODN” value (Shionogi cells) was “further enhanced the cytotoxic effects of taxol”.
For “Seq. ID No. 12: human antisense phosphorothioate ODN overlapping or adjacent to translation initiation or termination site of TRPM-2 mRNA (GCTGGGCGGAGTTGGGGGCCT; DNA, all phosphorothioate, methylation of C not given here)”, the “inhibition of TRPM-2 mRNA expression” value (human TRPM-2 mRNA) was “best results” and the “inhibition of TRPM-2 mRNA expression” value (human TRPM-2 mRNA; listed as 12) was “active”.
With “Seq. ID No. 5: human antisense phosphorothioate ODN complementary to the first 21 bases of the TRPM-2 mRNA (ATTGTCTGAGACCGTCTGGTC; DNA, all phosphorothioate, methylation of C not given here)” the “inhibition of TRPM-2 mRNA expression” value (human TRPM-2 mRNA) was “best results” and the “inhibition of TRPM-2 mRNA expression” value (human TRPM-2 mRNA; listed as 5) was “active”.
In the case of “mismatch control ODN: mismatch control two bases different in sequence from the antisense TRPM-2 ODN (DNA GCACAGCAGCAGGATCTTCAT; DNA, backbone and methylation of C not given here)”, the “TRPM-2 mRNA levels in Shionogi cells” value (TRPM-2 mRNA [1]) was “not affected”, the “TRPM-2 expression in CaKi-2 cells” value (TRPM-2 mRNA [2]) was “not” and the side effects [3] was “No side effects”.
